From patent publication US11324768B2, “Applications of triacetyl-3-hydroxyl phenyl adenosine in treating vascular inflammations or improving vascular endothelium functions” (priority 2016, dated 2022)

Columns and labels:
Type in all cases: in vivo
C57BL/6J mice = assay: TNF-α-induced acute vascular inflammation in mice (leukocyte movement rate and leukocyte-endothelial cell adhesion in mesenteric venules); conditions: 7 days, 4 h after TNF-α
Method: 60 C57BL/6J mice were randomly divided into 6 groups according to body weight: normal control group, model control group, IMM-H007 group, positive control AMPK agonist group metformin, A769662 group, and atorvastatin group, respectively, and were intragastrically administered with physiological saline, IMM-H007 (100 mg/kg), metformin (260 mg/kg), and atorvastatin (lipitor, 10 mg/kg), respectively, and injected intraperitoneally with A769662 (30 mg/kg, which is difficult to absorb by oral administration) for 7 consecutive days. On the 8th day, except that the blank control group was intraperitoneally injected with normal saline, other groups were all intraperitoneally injected with TNF-α (0.3 μg/dose) to induce acute inflammations in the blood vessels. Four hours after the injection of TNF-α, the optic nerve vascular plexus was intravenously injected with 0.05% Rhodamine-6G, and leukocytes were fluorescently labeled with 100 μl. The mice were anesthetized with pentobarbital sodium. The right side of the mice was fixed on a observation table. A small mouth was cut along the abdominal cavity. The mesenteric vascular bed was gently pulled out. The small intestine of the mice was fixed in a observation window. The microscope is turned on to find a clear third-order mesenteric vein under a low power microscope, and then adjusted to 20-fold magnification for observation, after adjusting the brightness and focal length to the optimum, the white light was turned off, the fluorescence was turned on, and a 1 min leukocyte movement video was collected from each vessel segment using the ToumView software of the Dynamic Visual Microvascular Research System (Gene&I-SMC1). The leukocyte movement rate and leukocyte-endothelial cell adhesion number reflect intravascular inflammations and are early signs of endothelial dysfunction.
The leukocyte movement rate was analyzed with image pro 6.0. At least three observation points were selected for each observation field, and at least 9 observation sites were finally counted for each mouse. The mean value was calculated to obtain the average leukocyte movement rate.

ApoE−/− mice [1] = assay: Intravascular inflammatory response in high-fat-fed ApoE−/− mice (chronic inflammation model); conditions: 8 weeks, high-fat diet
Method: After 1 week of adaptive feeding, the animals were randomly divided into 4 groups according to body weight: model control group, A769662 (30 mg/kg, ip), metformin (260 mg/kg), IMM-H007 (100 mg/kg) administration groups, 7 in each group, and were given a high-fat diet (78.6% basal diet, 10% lard, 1.00%/cholesterol, 10% egg yolk powder, and 0.4% bile salt), and simultaneously administered intragastrically at a dose of 0.1 ml/10 g body weight, and were continuously administered and fed for 8 weeks. The mice were anesthetized with pentobarbital sodium (60 mg/kg body weight). The right side of the mice was fixed on a observation table. A small mouth was cut along the abdominal cavity. The mesenteric vascular bed was gently pulled out. The small intestine of the mice was fixed in an observation window, the microscope is turned on to find a clear third-order mesenteric vein under a low power microscope, and then adjusted to 20-fold magnification for observation, after adjusting the brightness and focal length to the optimum, the white light was turned off, the fluorescence was turned on, and the leukocyte movement in the blood vessel could be observed. A 1 min leukocyte movement video was collected from each vessel segment using the ToumView software of the Dynamic Visual Microvascular Research System (Gene&I-SMC1). Leukocyte movement rate and number of leukocyte-endothelial cells adhesion were analyzed using image pro 6.0.
(1) Leukocyte Movement Rate and (2) Number of Leukocyte-Endothelial Cell Adhesion

VCAM-1 = assay: Serum inflammatory factor VCAM-1 in ApoE−/− mice (ELISA)
TNF-α = assay: Serum inflammatory factor TNF-α in ApoE−/− mice (ELISA); design: unit not given here
Method: After 1 week of adaptive feeding, the animals were randomly divided into 7 groups according to body weight: normal control group, model control group A769662 (30 mg/kg) administration group, metformin (260 mg/kg) administration group, IMM-H007 low, medium, and high administration groups (50, 100, 200 mg/kg), 8 in each group, and were given a high-fat diet (78.6% basal diet, 10% lard, 1.0% cholesterol, 10% egg yolk powder, and 0.4% bile salt), […] body weight, and were continuously administered and fed for 8 weeks to establish an atherosclerosis model.
(2) Effect of IMM-H007 on Serum Inflammatory Factors TNF-α and VCAM-1 in ApoE−/− Mice
Operated according to kit instructions

ApoE−/− mice [2] = assay: Plaque area in ApoE−/− mice (oil red O staining of aorta and aortic root); conditions: for plaque area, Overall length of aorta: in % (unit assumed)
Method: After 1 week of adaptive feeding, the animals were randomly divided into 7 groups according to body weight: normal control group, model control group A769662 (30 mg/kg) administration group, metformin (260 mg/kg) administration group, IMM-H007 low, medium, and high administration groups (50, 100, 200 mg/kg), 8 in each group, and were given a high-fat diet (78.6% basal diet, 10% lard, 1.0% cholesterol, 10% egg yolk powder, and 0.4% bile salt), and simultaneously administered intragastrically at a dose of 0.1 ml/10 g body weight, […] model.
The aortic root was stained with oil red O and the overall length of the aorta was stained with oil red O. The pathological images were analyzed by Photoshop, Image 1, and Image-Pro Plus softwares. The pathological grading data were statistically analyzed using Chi-square test.

`CN(C)C(=N)N=C(N)N` [Metformin, metformin] was tested, and the Leukocyte movement rate (C57BL/6J mice; 260 mg/kg intragastric) was 21.5 µm/s, the “Number of leukocyte adhesion” value (C57BL/6J mice; 260 mg/kg intragastric) was 5.1 ± 2.2 number/200 micron and the Leukocyte movement rate (ApoE−/− mice [1]; 260 mg/kg) was 21.4 µm/s. For the same compound, the “Number of leukocyte adhesion” value (ApoE−/− mice [1]; 260 mg/kg) was 16.3 ± 6.8 number/200 micron, the “serum VCAM-1” value (VCAM-1; 260 mg/kg) was 234.9 ± 16.7 and the “serum TNF-α” value (TNF-α; 260 mg/kg) was 229.1 ± 35.2. For the same compound, the “plaque area, Frozen section of root of aorta %” value (ApoE−/− mice [2]; 260 mg/kg) was 3.73 ± 1.15 % and the “plaque area, Overall length of aorta” value (ApoE−/− mice [2]; 260 mg/kg) was 3.13 ± 1.76.

With `N#Cc1c(O)c2c(-c3ccc(-c4ccccc4O)cc3)csc2[nH]c1=O` [A769662] the Leukocyte movement rate (C57BL/6J mice; 30 mg/kg, ip) was 24.9 ± 3.8 µm/s, the “Number of leukocyte adhesion” value (C57BL/6J mice; 30 mg/kg, ip) was 3.5 ± 1.8 number/200 micron and the Leukocyte movement rate (ApoE−/− mice [1]; 30 mg/kg, ip) was 28.7 ± 7 µm/s. The “Number of leukocyte adhesion” value (ApoE−/− mice [1]; 30 mg/kg, ip) was 13.7 ± 4.9 number/200 micron, the “serum VCAM-1” value (VCAM-1; 30 mg/kg, ip) was 233.1 ± 18.3 and the “serum TNF-α” value (TNF-α; 30 mg/kg, ip) was 247.3 ± 49.7. For the same compound, the “plaque area, Frozen section of root of aorta %” value (ApoE−/− mice [2]; 30 mg/kg, ip) was 3.02 ± 0.89 % and the “plaque area, Overall length of aorta” value (ApoE−/− mice [2]; 30 mg/kg, ip) was 2.61 ± 1.80.

Work on `CC(C)c1c(C(=O)Nc2ccccc2)c(-c2ccccc2)c(-c2ccc(F)cc2)n1CC[C@@H](O)C[C@@H](O)CC(=O)O` [Atorvastatin, atorvastatin] yielded a Leukocyte movement rate (C57BL/6J mice; 10 mg/kg intragastric) of 20.6 µm/s and a Number of leukocyte adhesion (C57BL/6J mice; 10 mg/kg intragastric) of 5.3 number/200 µm.
